The values that follow come from article PMC10821046, “Harmaline to Human Mitochondrial Caseinolytic Serine Protease Activation for Pediatric Diffuse Intrinsic Pontine Glioma Treatment” (Pharmaceuticals, 2024).

Molecules are shown by their SMILES.

Data set [1] concerns the target T1, BCRP (Homo sapiens, UniProt Q9UNQ0).
T1 construct: expressed in transfected cells; host or cells: MDCK-BCRP
T1 sequence (Q9UNQ0 1-655): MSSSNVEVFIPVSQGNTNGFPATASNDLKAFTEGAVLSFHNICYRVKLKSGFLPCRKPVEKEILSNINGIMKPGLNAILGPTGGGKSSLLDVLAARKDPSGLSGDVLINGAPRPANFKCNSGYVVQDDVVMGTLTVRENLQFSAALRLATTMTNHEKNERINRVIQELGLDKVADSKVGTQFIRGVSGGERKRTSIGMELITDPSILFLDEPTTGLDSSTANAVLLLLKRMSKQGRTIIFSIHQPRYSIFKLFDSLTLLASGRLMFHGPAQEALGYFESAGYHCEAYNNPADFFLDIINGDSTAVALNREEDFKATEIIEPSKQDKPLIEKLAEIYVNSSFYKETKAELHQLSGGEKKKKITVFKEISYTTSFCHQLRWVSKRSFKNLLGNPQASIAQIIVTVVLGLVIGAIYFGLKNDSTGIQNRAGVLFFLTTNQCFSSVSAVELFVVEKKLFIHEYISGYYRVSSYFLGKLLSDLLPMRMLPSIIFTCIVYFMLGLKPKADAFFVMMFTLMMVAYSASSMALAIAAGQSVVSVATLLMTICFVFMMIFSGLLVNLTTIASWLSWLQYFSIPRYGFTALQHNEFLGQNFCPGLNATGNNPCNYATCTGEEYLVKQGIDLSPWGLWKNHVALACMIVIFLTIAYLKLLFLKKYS
In words: Hoechst 33342 experiment in MDCK-BCRP cells. It is filed as cell-based. The following applies: Hoechst 33342, MDCK-BCRP cells.
Description: Firstly, 3 × 10^4 MDCK-BCRP cells/well were seeded (100 µL) in a 96-well black culture plate and brought to O/N confluence in a 5% CO2 incubator at 37 °C. Different concentrations (0.1–100 µM) of the compounds in the culture medium (100 µL) to be tested were added, and the plate was incubated for 30 min. […] The supernatant was aspirated, and the cells were fixed for 20 min with 4% PFA (100 µL), protecting them from light. Three washes with ice-cold PBS and three washes with saline buffer followed, and then the plate was analyzed (λex 350 nm and λem 460 nm) by Victor3 (PerkinElmer). EC50 values were calculated from the percentage increase in fluorescence compared to log[dose].

Data set [2] deals with SK-N-AS spheroids. In words: 3D cell viability assay (CellTiter-Glo 3D, ATP). The data set is classed as cell-based, human. Particulars: 72 h; for viability at 100 µM: Homo sapiens, SK-N-AS, ATP assay, mean ± SEM; for decrease in cell viability: SK-N-AS spheroids, highest concentration (100 µM).
Data set [3] relates to SH-SY-5Y spheroids. In words: 3D cell viability assay (CellTiter-Glo 3D, ATP). It is filed as cell-based, human. Particulars: 72 h; for viability at 100 µM: Homo sapiens, SH-SY5Y, ATP assay, mean ± SEM; for decrease in cell viability: SH-SY-5Y spheroids, highest concentration (100 µM).
Data set [4] addresses T2, hClpP (Homo sapiens, UniProt Q16740).
T2 construct: made in house; host or cells: E. coli BL21-CodonPlus (DE3)-RIL
Nature of the data set: FITC-casein hClpP activity test. It is filed as biochemical. The following applies: 100 µM, normalized to 100 µM ONC201 activity. The method, then: To assess the potency of the proteolytic activity of hClpP, a FITC–casein assay was performed. In a black, flat-bottom, 96-well plate, a 3 μM solution of purified hClpP in assay buffer (50 mM of HEPES, pH 7.5, 300 mM of KCl, 1 mM of DTT, 15% v/v glycerol; AB) preincubated at 37 °C for 15 min was added to 5 μL of the tested compounds in DMSO at different concentrations (ranging from 1 to 100 μM) and incubated for 15 min at 37 °C under shaking. As a control, three wells were filled with 5 µL of DMSO. The kinetic measurement was started after adding 2 µM of the fluorogenic peptides FITC and casein (Merck, C3777), used as hydrolytic substrates. The fluorescence of the cleaved FITC was recorded over 60 min at 37 °C on a Tecan Infinite M200 Pro (λex: 485 nm, emission λem: 535 nm, gain: 60). The slope in the linear range between 600 and 1800 s was determined and plotted against time. The EC50 for each tested compound was calculated using GraphPad Prism 7.05. Results are reported as the mean of two independent experiments performed in triplicate.

Data set [5] deals with SU-DIPG-36 cells. Nature of the data set: 2D cell viability assay (CCK8). The following applies: SU-DIPG-36, 100 µM, 72 h exposure. The data set is classed as cell-based, human. The protocol: (§1) Patient-derived diffuse intrinsic pontine glioma cell cultures (SU-DIPG-36, SU-DIPG-50) were provided by Dr Michelle Monje (Institutional Review Board (Stanford University) approval). The cells were cultured as a monolayer in media that was changed once a week at 37 °C in 5% CO2 by using Tumor Stem Media composed by: a 1:1 ratio of DMEM/F12 (Invitrogen)/Neurobasal (-A) (Invitrogen), B27 (-A) (Life Technologies, Milan, Italy), 20 ng/mL of human basic fibroblast growth factor (Life Technologies), 20 ng/mL of recombinant human epidermal growth factor (Life Technologies), 10 ng/mL of platelet-derived growth factor-AA, 10 ng/mL of platelet-derived growth factor-BB (Life Technologies), and 20 ng/mL of heparin (StemCell Technologies, Milan, Italy).
(§2) Then, 1 × 10^4 SU-DIPG-36 or SU-DIPG-50 cells/well in 100 µL of culture medium were seeded into 96-well plates and incubated O/N at 37 °C in CO2 (5%). […] Control wells with DMSO were used to evaluate the possible cytotoxicity of the solvent. […] Then, the absorbance was red (λ = 450 nm) with Tecan Infinite 200. GraphPad Prism allowed for the determination of IC50.

Data set [6] deals with SU-DIPG-50 cells. In words: 2D cell viability assay (CCK8). The following applies: SU-DIPG-50, 100 µM, 72 h exposure. It is filed as cell-based, human. The protocol: as §1, §2
For data set [7], the target named is T3, P-gp (Homo sapiens, UniProt P08183).
T3 construct: expressed in transfected cells; host or cells: MDCK-MDR1
T3 sequence (P08183 whole entry): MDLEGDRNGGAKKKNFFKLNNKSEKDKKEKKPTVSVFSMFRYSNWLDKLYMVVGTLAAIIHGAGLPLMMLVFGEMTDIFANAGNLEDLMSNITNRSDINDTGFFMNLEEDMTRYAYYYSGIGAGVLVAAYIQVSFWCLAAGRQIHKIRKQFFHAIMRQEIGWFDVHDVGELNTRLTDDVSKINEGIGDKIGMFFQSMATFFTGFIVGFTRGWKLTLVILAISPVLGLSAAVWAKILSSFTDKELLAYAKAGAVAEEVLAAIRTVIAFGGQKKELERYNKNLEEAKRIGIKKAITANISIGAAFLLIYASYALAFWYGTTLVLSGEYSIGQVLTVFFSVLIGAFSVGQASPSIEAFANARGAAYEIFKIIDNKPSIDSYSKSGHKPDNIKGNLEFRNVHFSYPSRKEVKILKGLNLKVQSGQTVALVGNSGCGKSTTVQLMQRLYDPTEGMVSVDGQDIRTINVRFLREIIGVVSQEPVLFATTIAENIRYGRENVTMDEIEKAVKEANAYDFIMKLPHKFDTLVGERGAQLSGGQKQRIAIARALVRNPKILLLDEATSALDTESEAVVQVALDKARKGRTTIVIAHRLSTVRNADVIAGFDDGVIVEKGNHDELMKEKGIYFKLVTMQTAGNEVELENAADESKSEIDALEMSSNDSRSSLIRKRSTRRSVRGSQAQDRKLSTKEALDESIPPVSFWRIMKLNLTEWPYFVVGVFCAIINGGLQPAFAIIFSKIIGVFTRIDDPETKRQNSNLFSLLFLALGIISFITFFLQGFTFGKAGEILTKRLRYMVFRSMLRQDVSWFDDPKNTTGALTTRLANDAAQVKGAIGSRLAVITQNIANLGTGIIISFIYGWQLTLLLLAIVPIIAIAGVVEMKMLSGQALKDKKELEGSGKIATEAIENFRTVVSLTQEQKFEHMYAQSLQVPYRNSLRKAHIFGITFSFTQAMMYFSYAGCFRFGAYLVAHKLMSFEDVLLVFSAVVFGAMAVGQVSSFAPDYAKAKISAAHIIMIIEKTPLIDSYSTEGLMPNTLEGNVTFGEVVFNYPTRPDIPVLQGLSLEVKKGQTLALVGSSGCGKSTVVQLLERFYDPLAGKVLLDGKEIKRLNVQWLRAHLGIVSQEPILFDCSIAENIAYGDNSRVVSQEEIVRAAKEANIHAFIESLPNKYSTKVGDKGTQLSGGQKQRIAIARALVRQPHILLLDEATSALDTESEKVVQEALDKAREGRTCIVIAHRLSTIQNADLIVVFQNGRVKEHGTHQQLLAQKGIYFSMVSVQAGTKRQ
Nature of the data set: Calcein-AM experiment in MDCK-MDR1 cells. The data set is classed as cell-based. The protocol: Here, 3 × 10^4 MDCK-MDR1 cells/well were seeded (100 µL) in a black 96-well culture plate and incubated in CO2 (5%) at 37 °C O/N. The compounds to be tested were added at different concentrations (0.1–100 µM) in 100 µL of culture medium and then incubated for 30 min. […] The fluorescence of the wells containing the tested compounds was compared with that of those containing the untreated cells. The percentage of fluorescence as a function of log[dose] allowed the EC50 values to be determined.

Data set [8] is described as follows: Drug transport experiments, Caco-2 monolayer. Particulars: human, 1 × 10^−4 M. The data set is classed as in vitro ADME. An excerpt: The experiment started with the preparation of the Caco-2 monolayer, which occurred by seeding the cells (20,000/well) in Millicell plates (Millipore, Milan, Italy). Its growth was followed for 21 days by changing the medium occasionally and measuring its transepithelial electrical resistance (TEER) daily using an epithelial voltohmmeter (Millicell-ERS) until at least […] was reached.
After 21 days, the plate was washed twice with Hank’s balanced salt solution (HBSS) (Invitrogen). After the second wash, the wells were filled with buffer, and the plate was kept at 37 °C for 30 min. After the incubation time, the HBSS buffer was replaced with the solutions of the compounds to be tested at a concentration of 1 × 10^−4 M. The plates were placed in an incubator at 37 °C for 120 min. The apparent permeability (Papp), in units of nm s^−1, was calculated.
In general terms: Passage across Caco-2 layers is used to estimate intestinal permeability.

T2 sequence (Q16740 with tags, fused parts or gaps): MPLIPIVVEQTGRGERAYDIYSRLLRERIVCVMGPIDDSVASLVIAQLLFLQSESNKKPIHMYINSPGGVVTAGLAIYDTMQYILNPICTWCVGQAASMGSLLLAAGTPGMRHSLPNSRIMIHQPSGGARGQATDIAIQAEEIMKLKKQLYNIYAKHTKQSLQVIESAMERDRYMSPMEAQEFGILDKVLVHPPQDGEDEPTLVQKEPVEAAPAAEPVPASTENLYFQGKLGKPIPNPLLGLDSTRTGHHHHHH

Consider `COc1ccc2c3c([nH]c2c1)C(C)=NCC3` [Harmaline, 7-methoxy-1-methyl-4,9-dihydro-3H-pyrido[3,4-b]indole], for which the EC50 (usually the concentration that produces a half-maximal response) in data set [1] was 14.9 µM; in data set [7], more than 100 µM. For the same compound, the values for the viability at 100 µM in data set [2] and in data set [3] were 44.2 ± 24.2% and 67.5 ± 13.9%, respectively. For the same compound, the “decrease in cell viability” value in data set [2] was ~ 56%; in data set [3], ~ 32.5%. In addition, the “activation of hClpP” value in data set [4] is reported as 28%. The figures for the “cancer cell death (cytotoxic effect)” value in data set [5] and in data set [6] were 34% and 50%, respectively. For the same compound, the Papp A→B (as a rule, how fast a substance crosses the layer from the apical side) at 120 min in data set [8] (Caco-2, apical-basolateral) came to 49.6 ×10⁻⁶ cm/s. For the same compound, the Papp B→A – broadly, how fast a substance crosses the layer from the basolateral side – at 120 min in data set [8] (Caco-2, basolateral-apical) amounted to 254 ×10⁻⁶ cm/s.

In the case of `Cc1ccccc1CN1C(=O)C2=C(CCN(Cc3ccccc3)C2)N2CCN=C12` [ONC201, reference compound], the values for the viability at 100 µM in data set [2] and in data set [3] were 17.5 ± 6.8% and 13.7 ± 6.23%, respectively. Also, the “decrease in cell viability” value in data set [2] and in data set [3] was ~ 85% each time. The figures for the “cancer cell death (cytotoxic effect)” value in data set [5] and in data set [6] were 83% and 70%, respectively. In addition, in data set [7], the EC50 is 13.4 µM.
